Experiments:
FP receptors = FP receptors (Homo sapiens, UniProt P43088); details: Woodward et al., 2019; cited from earlier work
TP receptors = target: T1, TP receptors (Homo sapiens, UniProt P21731); details: Woodward et al., 2019; cited from earlier work
T1 sequence (P21731 1-343): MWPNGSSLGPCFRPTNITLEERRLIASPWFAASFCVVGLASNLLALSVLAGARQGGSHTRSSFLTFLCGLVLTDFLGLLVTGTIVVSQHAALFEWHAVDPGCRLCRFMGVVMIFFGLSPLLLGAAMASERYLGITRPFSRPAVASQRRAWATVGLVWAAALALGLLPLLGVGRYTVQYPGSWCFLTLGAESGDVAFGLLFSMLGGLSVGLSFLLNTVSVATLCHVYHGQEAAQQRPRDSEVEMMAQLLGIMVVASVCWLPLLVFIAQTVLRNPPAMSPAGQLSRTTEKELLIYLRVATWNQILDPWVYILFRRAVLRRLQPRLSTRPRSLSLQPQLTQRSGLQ

IP receptors = IP receptors (Homo sapiens, UniProt P43119); details: Woodward et al., 2019; cited from earlier work
Chain of IP receptors (P43119 whole entry): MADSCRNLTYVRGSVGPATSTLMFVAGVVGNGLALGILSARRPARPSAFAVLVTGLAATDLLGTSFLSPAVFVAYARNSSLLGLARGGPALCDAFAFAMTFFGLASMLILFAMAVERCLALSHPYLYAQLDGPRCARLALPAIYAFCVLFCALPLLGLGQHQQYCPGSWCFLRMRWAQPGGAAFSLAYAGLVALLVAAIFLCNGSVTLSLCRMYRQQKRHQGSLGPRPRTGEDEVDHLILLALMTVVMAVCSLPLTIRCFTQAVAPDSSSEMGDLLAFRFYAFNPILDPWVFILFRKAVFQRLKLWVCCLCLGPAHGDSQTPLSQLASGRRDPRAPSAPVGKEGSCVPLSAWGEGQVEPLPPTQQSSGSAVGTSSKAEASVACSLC

[1] = target: T2, human recombinant EP2 receptors (Homo sapiens, UniProt P43116); details: cited from earlier work
T2 construct: expressed in transfected cells; host or cells: HEK cells
T2 sequence (P43116 whole entry): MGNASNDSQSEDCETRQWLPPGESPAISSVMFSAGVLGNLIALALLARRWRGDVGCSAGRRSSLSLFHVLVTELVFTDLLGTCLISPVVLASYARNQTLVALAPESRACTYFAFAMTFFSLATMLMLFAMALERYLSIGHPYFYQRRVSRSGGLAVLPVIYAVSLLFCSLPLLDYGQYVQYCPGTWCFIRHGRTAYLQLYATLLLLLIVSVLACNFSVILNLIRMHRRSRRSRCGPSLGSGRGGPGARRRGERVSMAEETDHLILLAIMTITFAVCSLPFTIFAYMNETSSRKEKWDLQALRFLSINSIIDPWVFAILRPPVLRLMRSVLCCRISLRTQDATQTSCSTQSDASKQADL

DP receptors = target: T3, DP receptors (Homo sapiens, UniProt Q13258); details: Woodward et al., 2019; cited from earlier work
T3 sequence (Q13258 1-359): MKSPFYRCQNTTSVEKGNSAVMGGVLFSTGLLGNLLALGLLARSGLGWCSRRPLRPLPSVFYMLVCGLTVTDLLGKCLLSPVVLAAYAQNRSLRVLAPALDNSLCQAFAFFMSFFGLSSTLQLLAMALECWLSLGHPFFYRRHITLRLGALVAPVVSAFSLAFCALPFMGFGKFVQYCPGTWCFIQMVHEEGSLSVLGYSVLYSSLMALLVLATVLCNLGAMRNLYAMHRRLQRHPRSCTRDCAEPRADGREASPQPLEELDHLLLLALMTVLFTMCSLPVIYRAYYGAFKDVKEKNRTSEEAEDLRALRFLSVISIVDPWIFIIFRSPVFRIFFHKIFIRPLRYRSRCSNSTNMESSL

EP1 receptors = target: T4, EP1 receptors (Homo sapiens, UniProt P34995); details: Woodward et al., 2019; cited from earlier work
T4 sequence (P34995 1-402): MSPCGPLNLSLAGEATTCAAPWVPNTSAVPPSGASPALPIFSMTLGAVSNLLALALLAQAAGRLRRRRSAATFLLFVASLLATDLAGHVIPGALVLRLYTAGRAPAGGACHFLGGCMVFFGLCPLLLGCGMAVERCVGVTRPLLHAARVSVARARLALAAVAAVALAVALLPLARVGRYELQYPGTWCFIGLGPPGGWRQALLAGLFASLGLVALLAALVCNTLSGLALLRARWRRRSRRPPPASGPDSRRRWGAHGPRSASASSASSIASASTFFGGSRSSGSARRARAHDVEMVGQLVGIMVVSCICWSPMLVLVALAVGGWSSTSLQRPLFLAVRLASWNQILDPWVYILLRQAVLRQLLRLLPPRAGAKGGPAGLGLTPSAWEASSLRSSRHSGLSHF

EP4 receptors = EP4 receptors (Homo sapiens, UniProt P35408); details: Woodward et al., 2019; cited from earlier work
Chain of EP4 receptors (P35408 whole entry): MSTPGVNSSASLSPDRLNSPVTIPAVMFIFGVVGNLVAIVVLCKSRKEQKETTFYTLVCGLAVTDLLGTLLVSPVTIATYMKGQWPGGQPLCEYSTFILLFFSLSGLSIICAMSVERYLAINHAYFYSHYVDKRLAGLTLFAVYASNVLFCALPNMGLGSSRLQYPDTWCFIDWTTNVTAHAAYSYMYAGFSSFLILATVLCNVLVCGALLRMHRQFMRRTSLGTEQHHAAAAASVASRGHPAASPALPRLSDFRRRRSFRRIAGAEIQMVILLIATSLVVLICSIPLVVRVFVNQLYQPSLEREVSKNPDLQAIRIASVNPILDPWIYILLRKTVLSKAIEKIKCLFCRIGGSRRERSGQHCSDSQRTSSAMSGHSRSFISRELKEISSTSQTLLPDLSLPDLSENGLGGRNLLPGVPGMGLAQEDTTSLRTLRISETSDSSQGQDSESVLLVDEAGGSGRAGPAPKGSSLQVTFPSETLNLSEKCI

EP3 receptors = target: T5, EP3 receptors (Homo sapiens, UniProt P43115); details: Woodward et al., 2019; cited from earlier work
T5 sequence (P43115 1-390): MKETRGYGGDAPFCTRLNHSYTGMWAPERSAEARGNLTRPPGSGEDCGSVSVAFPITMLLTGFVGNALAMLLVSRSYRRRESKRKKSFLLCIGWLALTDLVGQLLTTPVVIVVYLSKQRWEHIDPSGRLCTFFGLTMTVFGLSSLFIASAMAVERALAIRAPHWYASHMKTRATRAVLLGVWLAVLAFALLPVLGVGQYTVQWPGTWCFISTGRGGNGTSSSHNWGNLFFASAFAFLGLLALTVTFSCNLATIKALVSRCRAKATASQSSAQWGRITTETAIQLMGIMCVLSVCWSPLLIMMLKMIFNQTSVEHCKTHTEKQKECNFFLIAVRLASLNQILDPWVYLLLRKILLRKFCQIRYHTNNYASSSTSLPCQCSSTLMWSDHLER

human subjects [2] = test: IOP in human subjects after once daily periorbital ointment (Example 6); assay type: in vivo
Protocol: (§1) Human subjects were treated with JV-GL1 ointment (20% medium-chain triglycerides and 80% petrolatum (v/v)) via periorbital skin administration to both eyes once daily. The human subjects were monitored daily for 9 days, with TOP measurements taken at 0 hours, 0.5 hours, 2 hours, and 8 hours from administration of the dose on Days 0, 1, and 9. IOP measurements were taken 0 hours from administration of the dose on Days 4 and 7.

human subjects [3] = test: Tolerability in human subjects during periorbital dosing (Example 6); assay type: in vivo; details: Groups 1-4, during the dosing period
Protocol: as §1

monkey = test: Monkey study of periorbital skin administration versus eye drops; assay type: in vivo; details: essentially equal doses
[4] = test system: ocular normotensive cynomolgus monkeys; test: Local observations after low periorbital doses of ointment (0.2 to 5 micrograms/eye); assay type: in vivo, cynomolgus monkey
Protocol: Separately, ocular normotensive cynomolgus monkeys were administered single doses of the ointment at 0.6 micrograms, 2.0 micrograms or 5.0 micrograms per eye.

[5] = test system: ocular normotensive cynomolgus monkeys; test: Periorbital skin and pupil observations after single periorbital dose of 10-30 micrograms (Example 1); assay type: in vivo, cynomolgus monkey
Protocol: (§2) Ocular normotensive cynomolgus monkeys were administered a single dose of JV-GL1 Ointment (20% medium-chain triglycerides and 80% petrolatum (v/v)) to the periorbital skin of the right eye (OD) at JV-GL1 doses of 10 micrograms, 20 micrograms, and 30 micrograms and TOP was measured; Lumigan® eye drops were used as a comparator. […] Compared with baseline, IOP was decreased in the eyes (OD) of animals treated with 10 micrograms, 20 micrograms, and 30 micrograms JVGL-1 to a similar extent (approximately 60%) whereas a much lower decrease occurred for Lumigan® (approximately 30%).
The incidence rate of pupil constriction in the three test article groups was 100% after 2-3 hours post-dosing.

[6] = test system: ocular normotensive cynomolgus monkeys; test: Intraocular pressure after once daily periorbital 0.2 μg/eye ointment (Example 2); assay type: in vivo, cynomolgus monkey
Protocol: Animals were unilaterally treated via periorbital skin administration of [(3′-fluoro-4-fluorobiphenyl-3-carbonyl) amino] phenoxyacetic acid isopropyl ester ointment once daily on Days 15-21. The right eye of the control group (Group 2) received ointment vehicle once daily on Days 8-14 and no treatment on Days 15-21. OD=right eye.
Ocular normotensive cynomolgus monkeys (Group 1, n=3) were unilaterally treated via periorbital skin administration of JV-GL1 ointment once daily in an amount of 0.2 μg in the right eye on Days 15-21 of a study, the results of which are shown in FIG. 3. JV-GL1 was administered as an ointment (20% medium-chain triglycerides and 80% petrolatum (v/v)). The animals were untreated on days 8-14 and IOP monitored daily. Group 2 (n=3) was administered vehicle ointment alone on days 8-14, followed by no treatment on days 15-21 of the study.

[7] = test system: ocular normotensive cynomolgus monkeys; test: Intraocular pressure after single periorbital dose (Example 1); assay type: in vivo, cynomolgus monkey; details: single periorbital dose of 10, 20 and 30 micrograms (similar extent), right eye (OD)
Source text: FIG. 2 compares the effect of 9 micrograms bimatoprost (30 pi of 0.03% Lumigan® ophthalmic solution) topical ocular surface administration once daily per eye for 4 days with single dose periorbital skin administration of [(3′-fluoro-4-fluorobiphenyl-3-carbonyl) amino] phenoxyacetic acid isopropyl ester ointment at 10 micrograms, 20 micrograms or 30 micrograms [(3′-fluoro-4-fluorobiphenyl-3-carbonyl) amino] phenoxyacetic acid isopropyl ester on intraocular pressure (TOP) in ocular normotensive Cynomolgus monkeys (Mean±SEM, n=4/group).
as §2

[8] = 10, 20, 30 micrograms single dose

Chain of FP receptors (P43088 whole entry): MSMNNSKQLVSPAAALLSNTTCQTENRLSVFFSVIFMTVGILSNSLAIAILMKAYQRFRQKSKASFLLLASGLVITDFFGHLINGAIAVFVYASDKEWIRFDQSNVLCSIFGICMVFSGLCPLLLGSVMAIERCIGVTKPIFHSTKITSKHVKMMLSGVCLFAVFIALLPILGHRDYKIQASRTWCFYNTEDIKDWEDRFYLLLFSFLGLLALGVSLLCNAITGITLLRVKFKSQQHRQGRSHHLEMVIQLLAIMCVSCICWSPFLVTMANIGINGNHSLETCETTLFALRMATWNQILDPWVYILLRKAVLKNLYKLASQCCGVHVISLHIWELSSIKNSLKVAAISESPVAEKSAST

In the case of O=C(O)COc1cccc(NC(=O)c2cc(-c3cccc(F)c3)ccc2F)c1 [JV-GL1 free acid, 3-[(3′-fluoro-4-fluorobiphenyl-3-carbonyl)amino] phenoxyacetic acid], the “affinity for FP receptors” value (FP receptors) is listed as “negligible”, the “affinity for TP receptors” value (TP receptors) is listed as “negligible” and the “affinity for IP receptors” value (IP receptors) is listed as “negligible”. For the same molecule, the “maximal elevation of cAMP levels” value ([1]; HEK cells over-expressing human recombinant EP2 receptors, versus PGE2) was “comparable to that of the endogenous agonist PGE2”, the EP2 receptor agonism ([1]; Woodward et al., 2019) was “potent and full EP2 receptor agonist” and the “affinity for DP receptors” value (DP receptors) was “negligible”. The “affinity for EP1 receptors” value (EP1 receptors) was “negligible”, the “affinity for EP4 receptors” value (EP4 receptors) was “negligible” and the “affinity for EP3 receptors” value (EP3 receptors) was “negligible”.
In the case of CC(C)OC(=O)COc1cccc(NC(=O)c2cc(-c3cccc(F)c3)ccc2F)c1 [JV-GL1, 3-[(3′-fluoro-4-fluorobiphenyl-3-carbonyl)amino] phenoxyacetic acid isopropyl ester], the “average change in TOP” value (human subjects [2]; Group 1, 0.30 μg/eye/day over 9 days, 0 hours after dose) is reported as −6%, the “average change in TOP” value (human subjects [2]; Group 1, 0.30 μg/eye/day over 9 days, 0.5 hours after dose) is reported as −3% and the “average change in TOP” value (human subjects [2]; Group 1, 0.30 μg/eye/day over 9 days, 2 hours after dose) is reported as 0%. For the same molecule, the “average change in TOP” value (human subjects [2]; Group 1, 0.30 μg/eye/day over 9 days, 8 hours after dose) was −4%, the “average change in TOP” value (human subjects [2]; Group 2, 0.59 μg/eye/day over 9 days, 0 hours after dose) was −14% and the “average change in TOP” value (human subjects [2]; Group 2, 0.59 μg/eye/day over 9 days, 0.5 hours after dose) was −10%. The “average change in TOP” value (human subjects [2]; Group 2, 0.59 μg/eye/day over 9 days, 2 hours after dose) was −16%, the “average change in TOP” value (human subjects [2]; Group 2, 0.59 μg/eye/day over 9 days, 8 hours after dose) was −12% and the “average change in TOP” value (human subjects [2]; Group 3, 0.99 μg/eye/day over 9 days, 0 hours after dose) was −11%. For the same molecule, the “average change in TOP” value (human subjects [2]; Group 3, 0.99 μg/eye/day over 9 days, 0.5 hours after dose) was −16%, the “average change in TOP” value (human subjects [2]; Group 3, 0.99 μg/eye/day over 9 days, 2 hours after dose) was −16% and the “average change in TOP” value (human subjects [2]; Group 3, 0.99 μg/eye/day over 9 days, 8 hours after dose) was −15%. For the same molecule, the “average change in TOP” value (human subjects [2]; Group 4, 1.92 μg/eye/day over 9 days, 0 hours after dose) was −19%, the “average change in TOP” value (human subjects [2]; Group 4, 1.92 μg/eye/day over 9 days, 0.5 hours after dose) was −22% and the “average change in TOP” value (human subjects [2]; Group 4, 1.92 μg/eye/day over 9 days, 2 hours after dose) was −20%. The “average change in TOP” value (human subjects [2]; Group 4, 1.92 μg/eye/day over 9 days, 8 hours after dose) was −14%, the “average change in TOP” value (human subjects [2]; Group 5, 3.99 μg/eye/day over 9 days, 0 hours after dose) was −13% and the “average change in TOP” value (human subjects [2]; Group 5, 3.99 μg/eye/day over 9 days, 0.5 hours after dose) was −13%. For the same molecule, the “average change in TOP” value (human subjects [2]; Group 5, 3.99 μg/eye/day over 9 days, 2 hours after dose) was −18%, the “average change in TOP” value (human subjects [2]; Group 5, 3.99 μg/eye/day over 9 days, 8 hours after dose) was −18% and the “dose dependence of TOP reduction” value (human subjects [2]; Groups 1, 2, 3 and 4 (0.30 to 1.92 μg/eye/day)) was “dose-dependent trend in TOP reduction”. For the same molecule, the “irritation or discomfort associated with AE of mild periorbital erythema” value (human subjects [3]) was “did not report any irritation or discomfort”, the “efficacy of periorbital skin administration versus eye drops” value (monkey) was “as effective as eye drops” and the “efficacy and local tolerability at lower doses” value ([4]; 0.2 to 5 micrograms/eye, periorbital) was “retained without obvious periorbital skin swelling and hyperemia of the periorbital skin and ocular surface”. For the same molecule, the “pupil constriction during the dosing period” value ([4]; eyes treated with either eye drops or ointment) was “persistent pupil constriction was observed”, the “resolution of skin redness and swelling” value ([4]; single doses of ointment at 0.6, 2.0 or 5.0 micrograms per eye) was “disappeared a few hours to overnight after dosing” and the “incidence rate of periorbital skin swelling, dose relation” value [5, 8] was “showed a certain dose dependent relationship”. For the same molecule, the “recovery of periorbital skin redness” value [5, 8] was “completely recovered by Day 2”, the “resolution of periorbital skin swelling” value [5, 8] was “disappeared by Day 5” and the “incidence rate of periorbital skin redness” value ([5]; all three groups (10, 20, 30 micrograms), 2-3 hours post-dosing) was 100%. For the same molecule, the “recovery of pupil constriction” value ([5]; except a single animal in the high-dose group) was “recovered by Day 15”, the “local findings at 10 to 30 micrograms/eye” value ([5]; in ointment, periorbital, 10 to 30 micrograms/eye) was “modest pupil constriction, erythema of the ocular surface and periorbital skin, and swelling of the periorbital skin” and the “incidence rate of pupil constriction” value ([5]; three groups (10, 20, 30 micrograms), after 2-3 hours post-dosing) was 100%. For the same molecule, the “onset of marked decrease in IOP” value ([6]; 0.2 μg/eye (OD) once daily) was “as early as one day following initiation of treatment”, the “IOP by the end of the study” value ([6]; 0.2 μg/eye (OD) once daily Days 15-21, from a starting point of ˜25 mmHg) was ~10 mmHg and the “IOP decrease compared with baseline” value [7] was “approximately 60%”.
